Measurements taken from ChEMBL document CHEMBL1201862, “PubChem BioAssay data set” (2004).
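The compound was tested at five concentrations on cells cultured in 96-well plates, with a 48-hour exposure period. GI50: concentration for 50% inhibition of growth.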 The source made the active and inactive calls. No stated cut-off is given here; in the data, active = GI50 up to about 1.1 µM and inactive = higher.

Tests used:
Assay in all cases: NCI-60 cell line screen, 48 h
786-0 = system: 786-0
A498 = system: A498
ACHN = system: ACHN
COLO 205 = system: COLO 205
DU-145 = system: DU-145
KM12 = system: KM12
LOX IMVI = system: LOX IMVI
MCF7 = system: MCF7
MDA-MB-231 = system: MDA-MB-231
MDA-MB-435 = system: MDA-MB-435
MDA-N = system: MDA-N
NCI-H226 = system: NCI-H226
NCI/ADR-RES = system: NCI/ADR-RES
OVCAR-5 = system: OVCAR-5
RXF 393 = system: RXF 393
SF-268 = system: SF-268
SK-MEL-28 = system: SK-MEL-28
SK-MEL-5 = system: SK-MEL-5
SR = system: SR
U-251 = system: U-251

Row | Structure (SMILES) | GI50 (786-0) | GI50 (A498) | GI50 (ACHN) | GI50 (COLO 205) | GI50 (DU-145) | GI50 (KM12) | GI50 (LOX IMVI) | GI50 (MCF7) | GI50 (MDA-MB-231) | GI50 (MDA-MB-435) | GI50 (MDA-N) | GI50 (NCI-H226) | GI50 (NCI/ADR-RES) | GI50 (OVCAR-5) | GI50 (RXF 393) | GI50 (SF-268) | GI50 (SK-MEL-28) | GI50 (SK-MEL-5) | GI50 (SR) | GI50 (U-251)
1 | Cn1c2c(c3ccccc31)CCN1C(=O)C34CCCC3CC21S4 (stereo not drawn) | > 100 µM (inactive) | > 100 µM (inactive) | > 100 µM (inactive) | > 100 µM (inactive) | > 100 µM (inactive) | > 100 µM (inactive) | > 100 µM (inactive) | > 100 µM (inactive) | > 100 µM (inactive) | > 100 µM (inactive) | > 100 µM (inactive) | > 100 µM (inactive) | > 100 µM (inactive) | > 100 µM (inactive) | > 100 µM (inactive) | > 100 µM (inactive) | > 100 µM (inactive) | 76.2 µM (inactive) | > 100 µM (inactive) | > 100 µM (inactive)
2 | COc1cccc2c(=O)c3c(n(C)c12)OC(C(C)C)C3 (stereo not drawn) | > 100 µM (inactive) | > 100 µM (inactive) | 63 µM (inactive) | 74 µM (inactive) | > 100 µM (inactive) | 99.5 µM (inactive) | > 100 µM (inactive) | > 100 µM (inactive) | > 100 µM (inactive) | > 100 µM (inactive) | > 100 µM (inactive) | 83.2 µM (inactive) | 55.7 µM (inactive) | > 100 µM (inactive) | > 100 µM (inactive) | > 100 µM (inactive) | > 100 µM (inactive) | 56.1 µM (inactive) | 30.8 µM (inactive) | > 100 µM (inactive)
3 | CC12CCCCC1=C(F)C(F)(F)S2 (stereo not drawn) | 20.8 µM (inactive) | > 100 µM (inactive) | 22.1 µM (inactive) | 15.1 µM (inactive) | > 89.1 µM (inactive) | > 84.7 µM (inactive) | 31.8 µM (inactive) | 34.4 µM (inactive) | 83.9 µM (inactive) | 43.3 µM (inactive) | 21.9 µM (inactive) | > 100 µM (inactive) | 40.1 µM (inactive) | 62.5 µM (inactive) | 20.5 µM (inactive) | > 66.4 µM (inactive) | 28 µM (inactive) | 46.3 µM (inactive) | 15 µM (inactive) | 98.6 µM (inactive)
4 | COc1cc(C2S/C(=C/c3ccccc3)C(=O)N2c2cc(Cl)ccc2Cl)cc(OC)c1OC (stereo not drawn) | 18.8 µM (inactive) | > 100 µM (inactive) | 35.8 µM (inactive) | 55.3 µM (inactive) | 35 µM (inactive) | 19 µM (inactive) | 15.8 µM (inactive) | 27 µM (inactive) | 40.3 µM (inactive) | 34.1 µM (inactive) | 34.5 µM (inactive) | 40.4 µM (inactive) | 28.2 µM (inactive) | – | 39.4 µM (inactive) | 21.6 µM (inactive) | 64.9 µM (inactive) | 35.8 µM (inactive) | 44.9 µM (inactive) | 35.7 µM (inactive)
5 | CC(=O)OC1c2ccccc2CC2(OC(C)=O)c3ccccc3C12 (stereo not drawn) | > 100 µM (inactive) | > 100 µM (inactive) | > 100 µM (inactive) | > 100 µM (inactive) | > 100 µM (inactive) | > 100 µM (inactive) | > 100 µM (inactive) | 80.4 µM (inactive) | > 100 µM (inactive) | > 100 µM (inactive) | > 100 µM (inactive) | > 100 µM (inactive) | > 100 µM (inactive) | > 100 µM (inactive) | > 100 µM (inactive) | > 100 µM (inactive) | > 100 µM (inactive) | – | > 100 µM (inactive) | > 100 µM (inactive)
6 | C[C@]12CC[C@@H]3c4cc(C=O)c(OCc5ccccc5)cc4CC[C@H]3[C@@H]1CCC2OCc1ccccc1 (stereo partly drawn) | > 100 µM (inactive) | > 100 µM (inactive) | 95.9 µM (inactive) | > 100 µM (inactive) | > 100 µM (inactive) | > 100 µM (inactive) | > 100 µM (inactive) | > 100 µM (inactive) | > 100 µM (inactive) | > 100 µM (inactive) | > 100 µM (inactive) | 32.8 µM (inactive) | > 100 µM (inactive) | > 100 µM (inactive) | > 100 µM (inactive) | > 100 µM (inactive) | > 100 µM (inactive) | > 100 µM (inactive) | 73.1 µM (inactive) | > 100 µM (inactive)
7 | CN(C)CCOc1ccc2[nH]c(C(=O)N3CC(CCl)c4ccc(N)cc43)cc2c1 (stereo not drawn) | 0.0687 µM (active) | 0.208 µM (active) | 0.0281 µM (active) | 0.083 µM (active) | 0.0323 µM (active) | 0.0733 µM (active) | 0.0601 µM (active) | 0.0266 µM (active) | 1.39 µM (inactive) | 0.0871 µM (active) | 0.143 µM (active) | 0.0776 µM (active) | 0.0933 µM (active) | 0.141 µM (active) | 0.0182 µM (active) | 0.0375 µM (active) | 0.126 µM (active) | 0.0451 µM (active) | < 0.0179 µM (active) | 0.0912 µM (active)
